Reference: patent US20040167226A1, “Methods for the treatment of pain and traumatic injury using benzamides and compositions containing the same” (priority 2002, published 2004)

Assays:
[1] = test system: Taxol-induced mechanical allodynia; assay: Taxol-induced neuropathic pain rat model, 50% paw withdrawal threshold (up-down method); assay type: in vivo, Sprague-Dawley rats; settings: rats, 50 mg/kg p.o. in 1% methylcellulose (positive control)
Source text: Sprague-Dawley male rats with 150-160 grams of body weight were used in the studies presented herein. Rats were trained in the enclosure one hour per day in the morning for a one week period prior to obtaining the baseline response. Whereas the mouse studies assessed percentage of response, the rat studies determined 50% of the paw withdrawal threshold, also called the up-down method as developed by Chung and colleagues. In order to obtain consistent data, naïve rats with paw withdrawal threshold no less than 4 grams were included for further studies. Taxol at a dose of 1 mg/kg (body weight) was administered daily to rats intraperitoneally. As observed in mice, the rats treated with Taxol daily developed stable mechanical allodynia on day 9 and thereafter. On day 13 and day 14 of Taxol induction, the rats pain behavior in term of 50% of paw withdrawal threshold was measured. Only those rats with paw withdrawal threshold measurements no greater than 7 grams for two consecutive days were included for drug testing. Generally speaking, the mechanical allodynia in Taxol treated rats fell in the range of 1-4 gram of paw withdrawal threshold.
1 ml per kg of body weight of either 50 mg/ml or 20 mg/ml of Compound A was administered to rats via oral gavage feeding (p.o.), to yield a dose of either 50 mg/Kg (body weight) or 20 mg/Kg (body weight). The same corresponding volume of 1% methylcellulose was used as vehicle control. 34 male Sprague-Dawely rats were employed for the study. The baseline paw withdrawal threshold (grams of force applied to the plantar area of the right hind paw) and neuropathic pain induction with daily intraperitoneal administration of 1 mg/kg (body weight) was performed as indicated in the previous section. The Taxol treatment was continued for 15 days until the pain threshold remained relatively stable. Animals with baseline greater than 4 grams and with threshold […] post induction were included in the drug testing. 27 rats met the criteria for the next step studies and were randomly assigned into four groups. Group 1 consisting of 7 rats was given 1% methylcellulose as vehicle control group, 1 ml of vehicle per kilograms of body weight was administered to animal via p.o.; group 2 with 6 animals was dosed at 20 mg/kg (body weight) of Compound A via oral gavage feeding (p.o.); group 3 with 7 rats was dosed at 50 mg/kg of Compound A, and the fourth group with 7 rats received Gabapentine at 50 mg/kg via p.o. in the same vehicle as a positive control group. Those rats were habituated in the enclosure and 50% of paw withdrawal thresholds (grams of force) were measured using a set of von Frey filaments, as described in the previous section, at time points of 1, 2, 3, 6, and 24 hours postdosing in a blinded fashion. The tester had no knowledge of which animals received drug or vehicle. It was noted that rats tested were very sleepy in the late afternoon (for 6 hour postdosing measurement), thus the data would not be reliable for 6-hour postdosing time points. […] After finishing the 24 hour postdosing measurement, the paw withdrawal threshold of each animal was calculated and data was analyzed.

[2] = PK parameter estimates, 30 mg/kg po in 1% methyl cellulose; assay type: in vivo, rats; settings: rat, plasma, rats, 30 mg/kg po in 1% methyl cellulose, n = 3
Source text: The time course of plasma concentration of compound N is depicted in FIG. 1 as well.

Q: With `NCC1(CC(=O)O)CCCCC1` [Gabapentine, reference compound] as the molecule, how does the “time of peak analgesic effect postdosing” value [1] read?
A: 3 to 6 h

Q: For `CC(=O)Nc1cccc(C(=O)NC(C)(C)C)c1` [Compound D, N-tert-butyl-3-acetamidobenzamide], which melting point is on record?
A: 194 to 195 °C

Q: For `CC(C)(C)NC(=O)c1ccc(N)cc1` [Compound N, N-tert-butyl-4-aminobenzamide], which AUC(0-inf) [2] is on record?
A: 1030 µg·h/mL

Q: And the Cmax [2]?
A: 5400 ng/mL

Q: And the Tmax [2]?
A: 0.5 h

Q: And the half-life ([2]; read-out: Elim.t1/2 (converted))?
A: 355 h

Q: What about the melting point of the same molecule?
A: 125 to 127 °C

Q: Which melting point does the source give for `CC(C)(C)NC(=O)c1cccc([N+](=O)[O-])c1` [Compound G, N-tert-butyl-3-nitrobenzamide] here?
A: 123 to 125 °C
